This is an account of results in patent publication US12227500B2, “Substituted pyrrolo[2,3-b]pyridines for suppressing toxic endoplasmic reticulum stress” (THE TRUSTEES OF COLUMBIA UNIVERSITY IN THE CITY OF NEW YORK, priority 2018, dated 2025).

Common to all, as to assay: Radiolabeled ATP kinase assay, panel of 60 kinases (Table S5)
Holding throughout (format): biochemical

Assay [1] has as its target T1, panel of 60 human kinases (Homo sapiens, UniProt P35916).
T1 construct: purchased Reaction Biology Corp
The note with it: FLT4/VEGFR3; 0.1 μM; 10 μM ATP; read-out: % Enzyme Activity (relative to DSMO controls). Put shortly:
(§1)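 Compounds at two concentrations, 0.1 μM and 0.5 μM, were screened for inhibition of 60 kinases in cell-free assays read out by radiolabeled ATP.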

For assay [2], the target named is T2, panel of 60 human kinases (Homo sapiens, UniProt Q12851).
T2 construct: purchased Reaction Biology Corp
T2 sequence (Q12851 1-820): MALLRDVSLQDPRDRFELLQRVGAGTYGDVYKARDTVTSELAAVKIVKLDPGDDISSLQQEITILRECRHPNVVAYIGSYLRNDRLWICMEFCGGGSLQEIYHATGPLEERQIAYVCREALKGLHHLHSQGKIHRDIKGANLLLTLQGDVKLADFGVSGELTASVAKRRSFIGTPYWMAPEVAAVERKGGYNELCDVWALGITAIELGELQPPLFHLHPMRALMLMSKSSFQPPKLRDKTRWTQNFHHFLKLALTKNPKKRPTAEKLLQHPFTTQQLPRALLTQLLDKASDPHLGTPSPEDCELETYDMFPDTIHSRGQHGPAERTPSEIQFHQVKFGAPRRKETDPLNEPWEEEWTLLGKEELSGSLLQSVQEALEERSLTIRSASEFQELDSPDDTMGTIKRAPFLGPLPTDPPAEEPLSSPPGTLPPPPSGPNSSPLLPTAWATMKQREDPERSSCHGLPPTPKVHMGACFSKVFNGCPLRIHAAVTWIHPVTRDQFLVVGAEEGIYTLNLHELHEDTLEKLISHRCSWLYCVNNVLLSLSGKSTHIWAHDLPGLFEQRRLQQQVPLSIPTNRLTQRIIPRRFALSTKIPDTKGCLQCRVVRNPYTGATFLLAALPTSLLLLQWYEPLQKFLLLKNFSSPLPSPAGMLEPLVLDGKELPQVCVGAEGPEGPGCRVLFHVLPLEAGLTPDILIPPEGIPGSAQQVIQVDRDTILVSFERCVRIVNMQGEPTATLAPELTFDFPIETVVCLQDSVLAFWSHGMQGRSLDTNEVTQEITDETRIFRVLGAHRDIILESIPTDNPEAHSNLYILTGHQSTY
Conditions: GCK/MAP4K1; 0.1 μM; 10 μM ATP; read-out: % Enzyme Activity (relative to DSMO controls). Put shortly: as §1

The target of assay [3] is T3, panel of 60 human kinases (Homo sapiens, UniProt O60285).
T3 construct: purchased Reaction Biology Corp
T3 sequence (O60285 1-661): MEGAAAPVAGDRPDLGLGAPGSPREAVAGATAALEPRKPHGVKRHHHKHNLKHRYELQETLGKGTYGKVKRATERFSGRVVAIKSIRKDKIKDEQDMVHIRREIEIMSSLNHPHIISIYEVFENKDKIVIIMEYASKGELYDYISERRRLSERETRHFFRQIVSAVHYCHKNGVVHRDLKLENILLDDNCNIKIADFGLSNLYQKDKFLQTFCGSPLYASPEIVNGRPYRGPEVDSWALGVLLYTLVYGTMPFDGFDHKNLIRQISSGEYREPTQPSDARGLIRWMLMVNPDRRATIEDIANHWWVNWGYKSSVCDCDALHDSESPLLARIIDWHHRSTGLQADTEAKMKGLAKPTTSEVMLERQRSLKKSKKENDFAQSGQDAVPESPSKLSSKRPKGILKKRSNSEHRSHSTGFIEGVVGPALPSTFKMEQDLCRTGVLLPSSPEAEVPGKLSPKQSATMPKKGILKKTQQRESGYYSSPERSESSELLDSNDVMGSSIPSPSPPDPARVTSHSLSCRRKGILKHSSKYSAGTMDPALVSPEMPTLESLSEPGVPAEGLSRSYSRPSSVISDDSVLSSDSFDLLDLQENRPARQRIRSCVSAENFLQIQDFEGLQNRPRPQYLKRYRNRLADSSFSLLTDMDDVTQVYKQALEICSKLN
The note with it: ARK5/NUAK1; 0.1 μM; 10 μM ATP; read-out: % Enzyme Activity (relative to DSMO controls). Put shortly: as §1

Assay [4] deals with T4, panel of 60 human kinases (Homo sapiens, UniProt Q13627).
T4 construct: purchased Reaction Biology Corp
Conditions: DYRK/RK1A; 0.1 μM; 10 μM ATP; read-out: % Enzyme Activity (relative to DSMO controls). In outline: as §1

SMILES strings stand for the structures.

T1 sequence (P35916 25-1363): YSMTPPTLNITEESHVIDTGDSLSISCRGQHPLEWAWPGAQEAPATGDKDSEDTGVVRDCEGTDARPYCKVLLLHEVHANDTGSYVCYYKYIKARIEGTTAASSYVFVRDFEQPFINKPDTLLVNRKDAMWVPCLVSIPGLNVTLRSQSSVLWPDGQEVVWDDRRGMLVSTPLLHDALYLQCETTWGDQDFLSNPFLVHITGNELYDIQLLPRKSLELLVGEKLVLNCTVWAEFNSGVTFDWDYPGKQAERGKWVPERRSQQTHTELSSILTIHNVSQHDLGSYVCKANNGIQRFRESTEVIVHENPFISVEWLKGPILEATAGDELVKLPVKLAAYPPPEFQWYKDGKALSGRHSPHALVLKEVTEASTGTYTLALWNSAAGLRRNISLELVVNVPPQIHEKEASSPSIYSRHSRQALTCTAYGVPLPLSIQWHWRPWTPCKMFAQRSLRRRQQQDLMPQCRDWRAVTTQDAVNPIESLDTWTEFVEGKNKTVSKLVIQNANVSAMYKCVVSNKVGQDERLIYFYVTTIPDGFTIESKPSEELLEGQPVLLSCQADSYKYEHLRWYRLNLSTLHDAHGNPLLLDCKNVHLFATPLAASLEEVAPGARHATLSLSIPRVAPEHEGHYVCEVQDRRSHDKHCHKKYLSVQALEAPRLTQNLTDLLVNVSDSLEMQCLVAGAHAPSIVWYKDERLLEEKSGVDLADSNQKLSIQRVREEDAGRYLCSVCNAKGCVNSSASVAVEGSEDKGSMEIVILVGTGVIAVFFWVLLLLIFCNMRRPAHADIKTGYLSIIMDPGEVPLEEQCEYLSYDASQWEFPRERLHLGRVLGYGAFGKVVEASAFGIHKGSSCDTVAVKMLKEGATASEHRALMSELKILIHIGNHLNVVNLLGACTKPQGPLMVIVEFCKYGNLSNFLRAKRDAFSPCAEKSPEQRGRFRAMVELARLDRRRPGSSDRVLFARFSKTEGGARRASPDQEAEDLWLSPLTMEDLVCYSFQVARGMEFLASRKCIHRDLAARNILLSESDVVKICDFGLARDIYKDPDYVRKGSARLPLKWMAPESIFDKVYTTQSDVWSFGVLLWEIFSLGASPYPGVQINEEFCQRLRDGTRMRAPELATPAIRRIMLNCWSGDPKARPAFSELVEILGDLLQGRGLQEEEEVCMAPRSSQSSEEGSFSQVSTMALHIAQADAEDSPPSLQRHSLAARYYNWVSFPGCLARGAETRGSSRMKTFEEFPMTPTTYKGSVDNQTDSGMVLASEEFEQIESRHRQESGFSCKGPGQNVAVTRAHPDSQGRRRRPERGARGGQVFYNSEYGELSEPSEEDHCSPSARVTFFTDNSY

Consider `CN1CCN(Cc2ccc(-c3cnc4[nH]cc(-c5ccc6[nH]ccc6c5)c4c3)cc2)CC1` [Compound 1, 3-(1H-Indol-5-yl)-5-(4-((4-methylpiperazin-1-yl)methyl)phenyl)-1H-pyrrolo[2,3-b]pyridine, reference compound], for which the remaining activity at 0.1 µM in assay [1] came to 34.5%; in assay [2], 27.5%; in assay [3], 5.96%; in assay [4], 41%.
The corresponding values for `CN1CCN(Cc2ccc(-c3cnc4[nH]cc(-c5cccc(Cl)c5)c4c3)cc2)CC1` [Compound 7ad, 3-(3-Chlorophenyl)-5-(4-((4-methylpiperazin-1-yl)methyl)phenyl)-1H-pyrrolo[2,3-b]pyridine] are 80.5%, 8.09%, 22.4% and 53.4%.
The corresponding values for `CN1CCN(Cc2ccc(-c3cnc4[nH]cc(-c5cnn(Cc6ccccc6)c5)c4c3)cc2)CC1` [Compound 7ah, 3-(1-Benzyl-1H-pyrazol-4-yl)-5-(4-((4-methylpiperazin-1-yl)methyl)phenyl)-1H-pyrrolo[2,3-b]pyridine] are 34%, 10.1%, 0.03% and 4.52%.
`Cc1nn(C)c(C)c1-c1c[nH]c2ncc(-c3ccc(CN4CCN(C)CC4)cc3)cc12` [Compound 7ai, 5-(4-((4-Methylpiperazin-1-yl)methyl)phenyl)-3-(1,3,5-trimethyl-1H-pyrazol-4-yl)-1H-pyrrolo[2,3-b]pyridine]: the remaining activity at 0.1 µM was 60.3% in assay [1], 53.8% in assay [2], 21.6% in assay [3] and 41.7% in assay [4].
On the same counts, the results for `CN1CCN(Cc2ccc(-c3cnc4[nH]cc(-c5ccccc5Cl)c4c3)cc2)CC1` [Compound 7as, 3-(2-Chlorophenyl)-5-(4-((4-methylpiperazin-1-yl)methyl)phenyl)-1H-pyrrolo[2,3-b]pyridine] are 23.2%, 8.85%, 4.44% and 42%.
On the same counts, the results for `COc1ccccc1-c1c[nH]c2ncc(-c3ccc(CN4CCN(C)CC4)cc3)cc12` [Compound 7at, 3-(2-Methoxyphenyl)-5-(4-((4-methylpiperazin-1-yl)methyl)phenyl)-1H-pyrrolo[2,3-b]pyridine] are 79.8%, 12.3%, 22.9% and 57.4%.
On the same counts, the results for `CN1CCN(Cc2ccc(-c3cnc4[nH]cc(-c5ccc6c(c5)OCCO6)c4c3)cc2)CC1` [Compound 7d, 3-(2,3-Dihydrobenzo[b][1,4]dioxin-6-yl)-5-(4-((4-methylpiperazin-1-yl)methyl)phenyl)-1H-pyrrolo[2,3-b]pyridine] are 39%, 13.1%, 20.8% and 3.15%.
Consider `CN1CCN(Cc2ccc(-c3cnc4[nH]cc(-c5ccncc5)c4c3)cc2)CC1` [Compound 7n, 5-(4-((4-Methylpiperazin-1-yl)methyl)phenyl)-3-(pyridin-4-yl)-1H-pyrrolo[2,3-b]pyridine], for which the remaining activity at 0.1 µM in assay [1] turned out to be 66%; in assay [2], 59.6%; in assay [3] it was 39.3%; in assay [4], 40.3%.
On the same counts, the results for `CN1CCN(Cc2ccc(-c3cnc4[nH]cc(-c5ccoc5)c4c3)cc2)CC1` [Compound 7w, 3-(Furan-3-yl)-5-(4-((4-methylpiperazin-1-yl)methyl)phenyl)-1H-pyrrolo[2,3-b]pyridine] are 64.6%, 33.6%, 14.8% and 71.2%.
